In patent publication US20120270943A1 (priority 2011, published 2012):

Tests used:
water solubility = type: physicochemical
[1] = administration of D-aspartic acid hydrochloride and/or ethyl ester hydrochloride; type: in vivo; conditions: administration by ingestion, injection or nasal spray, 10 mg to 100 g per day
Protocol: The D-aspartic acid hydrochloride or D-aspartic acid ethyl ester hydrochloride are administered by ingestion of pills, capsules, powdered drink mixes, beverages, confectionaries, syrups, and/or chewable tablets, or by injection of an aqueous solution, or via a nasal spray.

humans = conditions: cited from earlier work
pituitary gland; testes = conditions: in vivo; cited from earlier work

| SMILES | water solubility (in words) (water solubility) | LH and HGH levels [1] | libido and/or mood [1] | strength, muscle mass, endurance and rate of recovery [1] | testosterone [1] | LH levels (humans; oral, almost four (4) grams a day, men) | rise of testosterone, level greater than day zero (humans; oral, almost four (4) grams a day, peak on day twelve (12), twenty-three (23) men) [%] | levels of testosterone after discontinuation (humans; three (3) days after discontinuation) | effect in the testes upon testosterone production (pituitary gland; testes) | release of Luteinizing Hormone (LH) and Growth Hormone (GH) from the pituitary gland (pituitary gland; testes) |
| --- | --- | --- | --- | --- | --- | --- | --- | --- | --- | --- |
| CCOC(=O)C[C@@H](N)C(=O)OCC.Cl [D-aspartic acid diethyl ester hydrochloride] | high water solubility | increase | improves/increases | increases | increase | – | – | – | – | – |
| Cl.N[C@H](CC(=O)O)C(=O)O [D-aspartic acid hydrochloride] | – | increase | improves/increases | increases | increase | – | – | – | – | – |
| N[C@H](CC(=O)O)C(=O)O [D-aspartic acid] | – | – | – | – | – | increased significantly | 42 | still significantly increased | direct stimulating effect | stimulate the release |
